From patent US9708314B2, “Heterocyclic amide compound” (NISSAN CHEMICAL INDUSTRIES, LTD., priority 2013, dated 2017)

What was measured:
Assay type in all cases: in vivo
[1] = test system: directly sowed Oryza sativa; test: Test Example 3: effect on crop by application to foliage (Wagner pot, water depth 0.1-0.5 cm); details: Nineteenth Table, application to foliage
Summary of the method: (§1)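 Alluvial soil in 1/10000 are Wagner pots, sown and grown 14 days in a 25–30 °C greenhouse. An emulsifiable concentrate diluted in water to the set dose (g/ha) was sprayed on stems and leaves. Effect scored three weeks later on a 0–5 scale: 5 = ≥90% herbicidal ratio, 0 = ≤5%.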

Chenopodium album = test: Test Example 4: herbicidal effect by application to foliage (diluvial soil, plastic box); details: for O: Application herbicide amount 320 g/ha; for O (Chenopodium album) herbicidal effect grade: foliage application
Summary of the method: (§2)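 Scores run from 0 (herbicidal ratio ≤5%) to 5 (≥90%, almost fully withered) and were assessed three weeks after foliar spraying. Seedlings had been raised for 14 days at 25-30° C in sterilized diluvial soil before treatment, with the emulsion diluted in water to the stated g/ha dose.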

Apera spica-venti. = test: as above; details: for L: Application herbicide amount 320 g/ha; for L (Apera spica-venti.) herbicidal effect grade: foliage application
Summary of the method: as §2

Alopecurus myosuroides = test: as above; details: for J: Application herbicide amount 320 g/ha; for J (Alopecurus myosuroides) herbicidal effect grade: foliage application
Summary of the method: as §2

Digitaria ciliaris = test: as above; details: for F: Application herbicide amount 320 g/ha; for F (Digitaria ciliaris) herbicidal effect grade: foliage application
Summary of the method: as §2

[2] = test system: Echinochloa crus-galli var. crus-galli; test: as above; details: for H: Application herbicide amount 320 g/ha; for H (Echinochloa crus-galli var. crus-galli) herbicidal effect grade: foliage application
Summary of the method: as §2

Galium spurium = test: as above; details: for Q: Application herbicide amount 320 g/ha; for Q (Galium spurium) herbicidal effect grade: foliage application
Summary of the method: as §2

Lolium multiflorum Lam. = test: as above; details: for K: Application herbicide amount 320 g/ha; for K (Lolium multiflorum Lam.) herbicidal effect grade: foliage application
Summary of the method: as §2

Avena fatua = test: as above; details: for I: Application herbicide amount 320 g/ha; for I (Avena fatua) herbicidal effect grade: foliage application
Summary of the method: as §2

Veronica persica = test: as above; details: for R: Application herbicide amount 320 g/ha; for R (Veronica persica) herbicidal effect grade: foliage application
Summary of the method: as §2

Abutilon theophrasti = test: as above; details: for M: Application herbicide amount 320 g/ha; for M (Abutilon theophrasti) herbicidal effect grade: foliage application
Summary of the method: as §2

Setaria viridis = test: as above; details: for G: Application herbicide amount 320 g/ha; for G (Setaria viridis) herbicidal effect grade: foliage application
Summary of the method: as §2

Leptochloa chinensis = test: Test Example 3: herbicidal effect by application to foliage (Wagner pot, water depth 0.1-0.5 cm); details: Nineteenth Table, application to foliage
Summary of the method: as §1

[3] = test system: Echinochloa crus-galli var. crus-galli; test: as above; details: Nineteenth Table, application to foliage
Summary of the method: as §1

Cyperus difformis = test: as above; details: Nineteenth Table, application to foliage
Summary of the method: as §1

[4] = application herbicide amount 320 g/ha
[5] = application herbicide amount 288 g/ha
[6] = Application herbicide amount 288 g/ha
[7] = application herbicide amount 192 g/ha

| SMILES | b (effect on crop grade) [1, 4] | O (Chenopodium album) | L (Apera spica-venti.) | J (Alopecurus myosuroides) | F (Digitaria ciliaris) | H [2] | Q (Galium spurium) | K (Lolium multiflorum Lam.) | I (Avena fatua) | R (Veronica persica) | M (Abutilon theophrasti) | G (Setaria viridis) | D (herbicidal effect grade) (Leptochloa chinensis; [4]) | H (herbicidal effect grade) [3, 4] | E (herbicidal effect grade) (Cyperus difformis; [4]) | other results |
| --- | --- | --- | --- | --- | --- | --- | --- | --- | --- | --- | --- | --- | --- | --- | --- | --- |
| Cc1nnc(NC(=O)c2ccc(C(F)(F)F)n3c(SC(C)(C)C)nnc23)o1 [1-095] | 1 (Herbicidal ratio of 5% or more and less than 20%) | 5 (Herbicidal ratio of 90% or more (almost completely withered)) | 1 (Herbicidal ratio of 5% or more and less than 20%) | 1 (Herbicidal ratio of 5% or more and less than 20%) | 5 (Herbicidal ratio of 90% or more (almost completely withered)) | 5 (Herbicidal ratio of 90% or more (almost completely withered)) | 3 (Herbicidal ratio of 40% or more and less than 70%) | 2 (Herbicidal ratio of 20% or more and less than 40%) | 1 (Herbicidal ratio of 5% or more and less than 20%) | 5 (Herbicidal ratio of 90% or more (almost completely withered)) | 4 (Herbicidal ratio of 70% or more and less than 90%) | 3 (Herbicidal ratio of 40% or more and less than 70%) | 4 (Herbicidal ratio of 70% or more and less than 90%) | 4 (Herbicidal ratio of 70% or more and less than 90%) | 4 (Herbicidal ratio of 70% or more and less than 90%) | – |
| Cc1nnc(NC(=O)c2ccc(C(F)(F)F)n3c(N4CCOCC4)nnc23)o1 [1-096] | 4 (Herbicidal ratio of 70% or more and less than 90%) | 5 (Herbicidal ratio of 90% or more (almost completely withered)) | 3 (Herbicidal ratio of 40% or more and less than 70%) | 1 (Herbicidal ratio of 5% or more and less than 20%) | 5 (Herbicidal ratio of 90% or more (almost completely withered)) | 5 (Herbicidal ratio of 90% or more (almost completely withered)) | 4 (Herbicidal ratio of 70% or more and less than 90%) | 2 (Herbicidal ratio of 20% or more and less than 40%) | 2 (Herbicidal ratio of 20% or more and less than 40%) | 5 (Herbicidal ratio of 90% or more (almost completely withered)) | 4 (Herbicidal ratio of 70% or more and less than 90%) | 5 (Herbicidal ratio of 90% or more (almost completely withered)) | 5 (Herbicidal ratio of 90% or more (almost completely withered)) | 5 (Herbicidal ratio of 90% or more (almost completely withered)) | 4 (Herbicidal ratio of 70% or more and less than 90%) | – |
| CC(C)c1nnc2c(C(=O)Nc3nnc(C(F)(F)F)o3)ccc(C(F)(F)F)n12 [1-100] | 0 (Herbicidal ratio of 5% or less (almost no effect)) | 5 (Herbicidal ratio of 90% or more (almost completely withered)) | 0 (Herbicidal ratio of 5% or less (almost no effect)) | 0 (Herbicidal ratio of 5% or less (almost no effect)) | 3 (Herbicidal ratio of 40% or more and less than 70%) | 4 (Herbicidal ratio of 70% or more and less than 90%) | 0 (Herbicidal ratio of 5% or less (almost no effect)) | 0 (Herbicidal ratio of 5% or less (almost no effect)) | 1 (Herbicidal ratio of 5% or more and less than 20%) | 1 (Herbicidal ratio of 5% or more and less than 20%) | 3 (Herbicidal ratio of 40% or more and less than 70%) | 1 (Herbicidal ratio of 5% or more and less than 20%) | 5 (Herbicidal ratio of 90% or more (almost completely withered)) | 5 (Herbicidal ratio of 90% or more (almost completely withered)) | 4 (Herbicidal ratio of 70% or more and less than 90%) | – |
| COc1cccc(Nc2nnc3c(C(=O)Nc4nnc(C)o4)ccc(C(F)(F)F)n23)n1 [1-102] | 2 (Herbicidal ratio of 20% or more and less than 40%) | 5 (Herbicidal ratio of 90% or more (almost completely withered)) | 0 (Herbicidal ratio of 5% or less (almost no effect)) | 0 (Herbicidal ratio of 5% or less (almost no effect)) | 3 (Herbicidal ratio of 40% or more and less than 70%) | 4 (Herbicidal ratio of 70% or more and less than 90%) | 2 (Herbicidal ratio of 20% or more and less than 40%) | 0 (Herbicidal ratio of 5% or less (almost no effect)) | 0 (Herbicidal ratio of 5% or less (almost no effect)) | 4 (Herbicidal ratio of 70% or more and less than 90%) | 3 (Herbicidal ratio of 40% or more and less than 70%) | 3 (Herbicidal ratio of 40% or more and less than 70%) | 5 (Herbicidal ratio of 90% or more (almost completely withered)) | 4 (Herbicidal ratio of 70% or more and less than 90%) | 4 (Herbicidal ratio of 70% or more and less than 90%) | – |
| C=CCSc1nnc2c(C(=O)Nc3nnco3)ccc(C(F)(F)F)n12 [1-128] | – | – | – | – | – | – | – | – | – | – | – | – | – | – | – | b (effect on crop grade) [1, 5]: 0 (Herbicidal ratio of 5% or less (almost no effect)); O (Chenopodium album) herbicidal effect grade (Chenopodium album; [6]): 5 (Herbicidal ratio of 90% or more (almost completely withered)); L (Apera spica-venti.) herbicidal effect grade (Apera spica-venti.; [6]): 1 (Herbicidal ratio of 5% or more and less than 20%); J (Alopecurus myosuroides) herbicidal effect grade (Alopecurus myosuroides; [6]): 1 (Herbicidal ratio of 5% or more and less than 20%); F (Digitaria ciliaris) herbicidal effect grade (Digitaria ciliaris; [6]): 5 (Herbicidal ratio of 90% or more (almost completely withered)); H (Echinochloa crus-galli var. crus-galli) herbicidal effect grade [2, 6]: 5 (Herbicidal ratio of 90% or more (almost completely withered)); Q (Galium spurium) herbicidal effect grade (Galium spurium; [6]): 1 (Herbicidal ratio of 5% or more and less than 20%); K (Lolium multiflorum Lam.) herbicidal effect grade (Lolium multiflorum Lam.; [6]): 1 (Herbicidal ratio of 5% or more and less than 20%); I (Avena fatua) herbicidal effect grade (Avena fatua; [6]): 0 (Herbicidal ratio of 5% or less (almost no effect)); R (Veronica persica) herbicidal effect grade (Veronica persica; [6]): 5 (Herbicidal ratio of 90% or more (almost completely withered)); M (Abutilon theophrasti) herbicidal effect grade (Abutilon theophrasti; [6]): 3 (Herbicidal ratio of 40% or more and less than 70%); G (Setaria viridis) herbicidal effect grade (Setaria viridis; [6]): 2 (Herbicidal ratio of 20% or more and less than 40%); D (herbicidal effect grade) (Leptochloa chinensis; [5]): 3 (Herbicidal ratio of 40% or more and less than 70%); H (herbicidal effect grade) [3, 5]: 4 (Herbicidal ratio of 70% or more and less than 90%); E (herbicidal effect grade) (Cyperus difformis; [5]): 3 (Herbicidal ratio of 40% or more and less than 70%) |
| Cc1cc(C(=O)Nc2nnnn2C)c2nnc(C(C)C)n2c1C(F)(F)F [2-050] | – | – | – | – | – | – | – | – | – | – | – | – | – | – | – | b (effect on crop grade) [1, 7]: 0 (Herbicidal ratio of 5% or less (almost no effect)); O (Chenopodium album) herbicidal effect grade (Chenopodium album; 192 g/ha): 5 (Herbicidal ratio of 90% or more (almost completely withered)); L (Apera spica-venti.) herbicidal effect grade (Apera spica-venti.; 192 g/ha): 0 (Herbicidal ratio of 5% or less (almost no effect)); J (Alopecurus myosuroides) herbicidal effect grade (Alopecurus myosuroides; 192 g/ha): 0 (Herbicidal ratio of 5% or less (almost no effect)); F (Digitaria ciliaris) herbicidal effect grade (Digitaria ciliaris; 192 g/ha): 3 (Herbicidal ratio of 40% or more and less than 70%); H (Echinochloa crus-galli var. crus-galli) herbicidal effect grade ([2]; 192 g/ha): 3 (Herbicidal ratio of 40% or more and less than 70%); Q (Galium spurium) herbicidal effect grade (Galium spurium; 192 g/ha): 0 (Herbicidal ratio of 5% or less (almost no effect)); K (Lolium multiflorum Lam.) herbicidal effect grade (Lolium multiflorum Lam.; 192 g/ha): 0 (Herbicidal ratio of 5% or less (almost no effect)); I (Avena fatua) herbicidal effect grade (Avena fatua; 192 g/ha): 2 (Herbicidal ratio of 20% or more and less than 40%); R (Veronica persica) herbicidal effect grade (Veronica persica; 192 g/ha): 3 (Herbicidal ratio of 40% or more and less than 70%); M (Abutilon theophrasti) herbicidal effect grade (Abutilon theophrasti; 192 g/ha): 3 (Herbicidal ratio of 40% or more and less than 70%); G (Setaria viridis) herbicidal effect grade (Setaria viridis; 192 g/ha): 1 (Herbicidal ratio of 5% or more and less than 20%); D (herbicidal effect grade) (Leptochloa chinensis; [7]): 3 (Herbicidal ratio of 40% or more and less than 70%); H (herbicidal effect grade) [3, 7]: 4 (Herbicidal ratio of 70% or more and less than 90%); E (herbicidal effect grade) (Cyperus difformis; [7]): 3 (Herbicidal ratio of 40% or more and less than 70%) |
